Entries after “also recorded” stand apart in the source; their conditions may differ. Read-outs that look alike come from different tables or passages of the source.
Legend:
[1] = system: OCTs, OCTNs and OATPs at the mouse BBB; assay: [^3H]erlotinib in situ carotid perfusion, brain transport with SLC transporter inhibitors; type: in vivo; conditions: 100 μM fexofenadine, 5 mM TEA, 100 μM estrone-3-sulfate, 0.5 mM ergothioneine, 5 mM L-carnitine
Description: (§1) Transport of [^3H]erlotinib at the luminal BRB and BBB was measured by in situ carotid perfusion.[11],[25] With this method, the vascular composition of the brain and the eye is completely substituted by an artificial fluid, whose constitution can be modified. The perfusion fluid for the in situ carotid perfusion consisted of Krebs carbonate-buffered physiological saline with 128 mM NaCl, 24 mM NaHCO3, 4.2 mM KCl, 2.4 mM NaH2PO4, 1.5 mM CaCl2, 0.9 mM MgSO4, and 9 mM D-glucose, warmed to 37 °C and gassed with 95% O2/5% CO2 to adjust the pH to 7.40. The pH of the perfusion fluid was checked and adjusted with a digital pH meter (±0.05 pH units) immediately before perfusion. Tissue accumulation of [^3H]erlotinib was measured under trans-influx zero to determine the kinetic conditions required to measure transport solely across the membrane, separating the sucrose (vascular) from the nonsucrose (tissue parenchyma) space. […] The first membrane (luminal/vascular) delimiting the sucrose space is the only kinetic interface that affects the distribution parameters of [^3H]erlotinib.
(§2) Mice were anesthetized with ketamine and xylazine (140 and 8 mg/kg, intraperitoneal), and a catheter was inserted into the right carotid artery after ligation of the appropriate vessels. Just before perfusion, the heart was cut. Perfusion started immediately at a constant flow rate of 2.5 mL/min. […] Perfusion was terminated by decapitating the mouse after 60 s. The right eye (without the optic nerve) and the right cerebral hemisphere were removed from the skull and dissected on a freezer pack. The tissues and aliquots of perfusion fluid were weighted, digested (Solvable; PerkinElmer), and mixed with Ultima-gold XR (PerkinElmer). Dual-label counting was carried out in a Tri-Carb 2810TR instrument (PerkinElmer) to measure radioactivity (disintegrations per minute, dpm). […] Therefore, radioactivity in the whole eye was assumed to represent only the posterior segment of the eye, which comprises the retina.
(§3) Calculations were performed as described previously.[11],[25] The initial transport rate, also called brain-eye clearance, expressed as Kin (μL/s/g) was selected as the main outcome parameter. The brain and eye tissue “vascular” volume (Vv; μL/g) was estimated by using the [^14C]sucrose distribution volume. The data for any mouse for which Vv was different from the normal values[25] were excluded from the analysis.

[2] = system: OCTs, OCTNs and OATPs at the mouse BRB; assay: [^3H]erlotinib in situ carotid perfusion, retina transport with SLC transporter inhibitors; type: in vivo; conditions: 100 μM fexofenadine, 5 mM TEA, 100 μM estrone-3-sulfate, 0.5 mM ergothioneine, 5 mM L-carnitine
Description: as §1, §2, §3

[3] = system: P-gp and BCRP at the human BRB and BBB; parameters: method as in PMID 34220523; conditions: cited from earlier work
[4] = system: P-gp and BCRP at the mouse BRB
[5] = system: P-gp and BCRP at the mouse BBB
[6] = system: P-gp and BCRP at the human blood–retina barrier (BRB); assay: [^11C]erlotinib PET, distribution to the human retina, baseline vs P-gp and/or BCRP inhibition; type: in vivo
Description: (§4) Medication-free male (n = 20) and female (n = 2) subjects, who were judged to be healthy based on the screening examinations (past medical history, physical examination, blood and urine tests), were enrolled into the study and allocated to the tariquidar (n = 5) or erlotinib group (n = 17).
(§5) The second scan was performed on the same day for the tariquidar group or on a separate day for the erlotinib group. […] The total administered dose of tariquidar was of 5.6 ± 0.6 mg/kg body weight. For the erlotinib group (n = 17), the second PET scan was acquired approximately 3 h after oral intake of 300 mg (n = 7), 650 mg (n = 8), or 1000 mg (n = 2) of erlotinib (Tarceva; Roche Pharma, 50 and 150 mg tablets).[22] […] In addition to the PET scans, magnetic resonance imaging (MRI) of the head (T1-weighted; Magnetom Skyra 3.0-T MRI, Siemens Medical Solutions) was performed on all participants.
(§6) As described previously,[22] serial arterial blood samples were collected during the two PET imaging sessions in both groups. Venous blood samples were collected at baseline and hourly for 8 h and at approximately 21 h after oral erlotinib intake for determination of erlotinib plasma concentrations. A gamma counter, which was cross-calibrated with the PET camera, was used to determine the radioactivity concentrations in blood and plasma aliquots.
(§7) Volume of interest (VOI) analysis was conducted for the retina on MR-to-PET coregistered images using PMOD software (version 3.6; PMOD Technologies Ltd., Zürich, Switzerland). The retina VOI was outlined in a way to avoid spillover of radioactivity from adjacent anatomic structures (e.g., major blood vessels). The volume of the retina VOI was in the range of 0.8–0.9 cm^3. None of the dimensions of the retina VOIs were much smaller than 2 times the full width at half-maximum (2 × 4.36 mm) of the employed PET scanner, meaning that partial volume effects causing an underestimation of the true radiotracer concentration in the VOI were negligible. […] Time-activity curves (TACs) were extracted from the coregistered dynamic PET images and normalized to injected radioactivity amount per body weight and expressed in units of standardized uptake value (SUV). The area under the TACs in plasma (AUCplasma), the retina (AUCretina) and the brain (AUCbrain), from 0 to 60 min after radiotracer injection, was determined with Prism 9.5.0 software (GraphPad Software, La Jolla, CA, USA).

[7] = parameters: method as in PMID 26940368, PMID 30237210; conditions: under the PET inhibition protocols; cited from earlier work
[8] = system: healthy volunteers; parameters: method as in PMID 30237210; conditions: oral 1000 mg dose group; precluded inclusion of additional subjects; cited from earlier work
[9] = system: P-gp and BCRP at the human blood–brain barrier (BBB); assay: [^11C]erlotinib PET, distribution to human whole brain gray matter, baseline vs P-gp and/or BCRP inhibition
Description: as §4, §5, §6, §7

[10] = parameters: method as in PMID 25165131; conditions: cited from earlier work
[11] = system: P-gp at the BBB; parameters: method as in PMID 25669913; conditions: human; i.v. tariquidar co-infusion protocol; cited from earlier work
[12] = system: P-gp at the human BRB; parameters: method as in PMID 27738009; conditions: i.v. tariquidar co-infusion; cited from earlier work
[13] = co-perfusion with 10 μM inhibitor
[14] = all combined oral erlotinib dose groups, p ≤ 0.001
[15] = oral erlotinib 300 mg, p ≤ 0.05
[16] = oral erlotinib 650 mg, p ≤ 0.05
[17] = all combined oral erlotinib doses, p ≤ 0.001
[18] = co-perfusion with 20 μM inhibitor
[19] = i.v. tariquidar infusion, p ≤ 0.05

Compound: C[N+](C)(C)C[C@H](O)CC(=O)[O-] [L-carnitine]
- significant changes in brain [^3H]erlotinib transport on co-perfusion [1]: None
- significant changes in retina [^3H]erlotinib transport on co-perfusion [2]: None

Compound: CC[N+](CC)(CC)CC [TEA, tetraethylammonium]
- significant changes in brain [^3H]erlotinib transport on co-perfusion [1]: None
- significant changes in retina [^3H]erlotinib transport on co-perfusion [2]: None

Compound: COc1cc2c(cc1OC)CN(CCc1ccc(NC(=O)c3cc(OC)c(OC)cc3NC(=O)c3cnc4ccccc4c3)cc1)CC2 [[^11C]tariquidar]
- baseline distribution (VT) in the human retina relative to the human brain [3]: 4–5 times

Compound: COc1cc2c(cc1OC)CN(CCc1ccc(NC(=O)c3cccc4c(=O)c5cccc(OC)c5[nH]c34)cc1)CC2 [elacridar]
- increase in [^3H]erlotinib distribution to the retina (Kin) vs baseline ([4]; mouse BRB, co-perfusion with 10 μM inhibitor): +114%
- change in Kin of [^3H]erlotinib vs baseline [5, 13]: +277%

Compound: C[N+](C)(C)[C@@H](Cc1c[nH]c(=S)[nH]1)C(=O)[O-] [ergothioneine]
- significant changes in brain [^3H]erlotinib transport on co-perfusion [1]: None
- significant changes in retina [^3H]erlotinib transport on co-perfusion [2]: None

Compound: C#Cc1cccc(Nc2ncnc3cc(OCCOC)c(OCCOC)cc23)c1 [erlotinib]
- change in AUCR of [^11C]erlotinib vs baseline scan [6, 14]: −31 ± 15%
- change in VT of [^11C]erlotinib vs baseline scan [6, 14]: −41 ± 16%
- change in AUCR of [^11C]erlotinib vs baseline scan [6, 15]: −34 ± 9%
- change in VT of [^11C]erlotinib vs baseline scan [6, 15]: −44 ± 12%
- change in AUCR of [^11C]erlotinib vs baseline scan [6, 16]: −31 ± 21%
- change in VT of [^11C]erlotinib vs baseline scan [6, 16]: −42 ± 19%
- unbound plasma concentration in humans [7]: approximately 0.4 μM
- adverse events [8]: skin rash
- change in AUCR of [^11C]erlotinib vs baseline scan [9, 17]: +15 ± 14%
- change in VT of [^11C]erlotinib vs baseline scan [9, 17]: +20 ± 16%
- change in AUCR of [^11C]erlotinib vs baseline scan ([9]; oral erlotinib 300 mg): no statistically significant changes
- change in VT of [^11C]erlotinib vs baseline scan ([9]; oral erlotinib 300 mg): no statistically significant changes
- change in AUCR of [^11C]erlotinib vs baseline scan ([9]; oral erlotinib 650 mg): statistically significant increase
- change in VT of [^11C]erlotinib vs baseline scan ([9]; oral erlotinib 650 mg): statistically significant increase
- effect of co-infusion of unlabeled erlotinib on Kin of [^3H]erlotinib in the retina ([4]; mouse, two different doses (10 or 20 μM)): did not decrease
- change in Kin of [^3H]erlotinib vs baseline [5, 13]: +215%
- change in Kin of [^3H]erlotinib vs baseline [5, 18]: +340%

Compound: C[C@]12CC[C@@H]3c4ccc(OS(=O)(=O)O)cc4CC[C@H]3[C@@H]1CCC2=O [estrone-3-sulfate]
- significant changes in brain [^3H]erlotinib transport on co-perfusion [1]: None
- significant changes in retina [^3H]erlotinib transport on co-perfusion [2]: None

Compound: COc1cc2ncnc(Nc3ccc(F)c(Cl)c3)c2cc1OCCCN1CCOCC1 [gefitinib]
- pKa [10]: 5.4

Compound: COc1cc2c(cc1OC)CN(CCc1ccc(NC(=O)c3cc(OC)c(OC)cc3NC(=O)c3cnc4ccccc4c3)cc1)CC2 [tariquidar]
- change in AUCR of [^11C]erlotinib vs baseline scan [6, 19]: −18 ± 8%
- change in VT of [^11C]erlotinib vs baseline scan [6, 19]: −25 ± 8%
- increase in brain distribution of (R)-[^11C]verapamil [11]: approximately 4 fold
- unbound plasma concentration in humans [7]: ~30 nM
- change in AUCR of [^11C]erlotinib vs baseline scan ([9]; i.v. tariquidar infusion): no significant changes
- change in VT of [^11C]erlotinib vs baseline scan ([9]; i.v. tariquidar infusion): did not result in any significant changes; also recorded: no significant changes
- change in Kin of [^3H]erlotinib vs baseline [5, 13]: +270%
- change in Kin of [^3H]erlotinib vs baseline [5, 18]: +280%
- increase in retinal VT of (R)-[^11C]verapamil [12]: 1.4 fold

Compound: C/C=C/C[C@@H](C)C(=O)[C@H]1C(=O)N[C@@H](C(C)C)C(=O)N(C)CC(=O)N(C)[C@@H](CC(C)C)C(=O)N[C@@H](C(C)C)C(=O)N(C)[C@@H](CC(C)C)C(=O)N[C@@H](C)C(=O)N[C@H](C)C(=O)N(C)[C@@H](CC(C)C)C(=O)N(C)[C@@H](CC(C)C)C(=O)N(C)[C@@H](C(C)C)C(=O)N1C [valspodar]
- change in Kin of [^3H]erlotinib vs baseline [5, 13]: +120%

Compound: [^3H]erlotinib
- Kin at the mouse BRB relative to the BBB ([4]; mouse, in vivo): approximately 2 times
